Assay results as given in patent US11912718B2, “Solid forms of a thienopyrimidinedione ACC inhibitor and methods for production thereof” (Gilead Apollo, LLC, priority 2016, dated 2024).

Key:
[1] = Study B: multiple oral dose pharmacokinetics, 10 days; type: in vivo, human; details: for AUC(0-inf) / Cmax / half-life / Tmax / AUC(0-t): human, in vivo, oral
Method: Study B (five (5) cohorts of 8 subjects (6 active and 2 placebo)) evaluated 50 mg twice daily (BID) (100 mg daily), 100 mg once daily (QD) (100 mg daily), 100 mg BID (200 mg daily), 200 mg QD (200 mg daily), or 150 mg QD (150 mg daily), or matching placebo. Subjects received multiple oral doses of Compound 1 or placebo for 9 consecutive days, with a single oral dose of Compound 1 or placebo on the morning of Day 10. Doses were administered approximately 30 minutes after meals.
Table 13 summarizes PK parameters of Study B after 10 days. The reported factors may vary up to about 2%.

[2] = Study A: single oral dose pharmacokinetics in healthy subjects; type: in vivo, human; details: for AUC(0-t) / Tmax / AUC(0-inf) / Cmax / half-life: human, plasma, fasted; for AUC(0-t): po; for AUC(0-t) / AUC(0-inf) / Cmax / half-life: mean ± SD; for Tmax: Mean (Min, Max)
Method: Study A evaluated the safety and tolerability of 30, 80, 200, 500, 800, and 1000 mg in the fasted state and 200 mg following a high fat meal (fed state) to cohorts of 8 healthy subjects (6 active and 2 placebo control per group).
Table 12 summarizes PK parameters (mean) under fasted conditions of Study A. The reported factors may vary up to about 2%.

[3] = 100 mg, 100 mg BID, Day 1, value available for one subject

Structure (SMILES): COc1ccccc1[C@H](Cn1c(=O)n(C(C)(C)C(=O)O)c(=O)c2c(C)c(-c3ncco3)sc21)OC1CCOCC1 [Compound 1, (R)-2-(1-(2-(2-methoxyphenyl)-2-((tetrahydro-2H-pyran-4-yl)oxy)ethyl)-5-methyl-6-(oxazol-2-yl)-2,4-dioxo-1,2-dihydrothieno[2,3-d]pyrimidin-3(4H)-yl)-2-methylpropanoic acid]
- AUC(0-inf) ([1]; 50 mg, 50 mg BID, Day 1): 178 ± 41 ng·h/mL
- Cmax ([1]; 50 mg, 50 mg BID, Day 1): 41 ± 14 ng/mL
- half-life ([1]; 50 mg, 50 mg BID, Day 1): 3.5 ± 1.6 h
- Tmax ([1]; 50 mg, 50 mg BID, Day 1, Mean (Min, Max)): 2.4 h
- AUC(0-t) ([1]; 50 mg, 50 mg BID, Day 1, read-out: AUC0-12): 143 ± 29 ng·h/mL
- AUC(0-t) ([1]; 50 mg, 50 mg BID, Day 1, read-out: AUC0-t): 143 ± 29 ng·h/mL
- half-life ([1]; 50 mg, 50 mg BID, Day 10): 10.3 ± 6.7 h
- AUC(0-t) ([1]; 50 mg, 50 mg BID, Day 10, read-out: AUC0-t): 403 ± 104 ng·h/mL
- Cmax ([1]; 50 mg, 50 mg BID, Day 10 steady state): 49 ± 15 ng/mL
- Tmax ([1]; 50 mg, 50 mg BID, Day 10 steady state, Mean (Min, Max)): 4.5 h
- Cmax ([1]; 100 mg, 100 mg BID, Day 1): 61.6 ± 15 ng/mL
- Tmax ([1]; 100 mg, 100 mg BID, Day 1, Mean (Min, Max)): 5.2 h
- AUC(0-t) ([1]; 100 mg, 100 mg BID, Day 1, read-out: AUC0-12): 345 ± 78 ng·h/mL
- AUC(0-t) ([1]; 100 mg, 100 mg BID, Day 1, read-out: AUC0-t): 345 ± 77 ng·h/mL
- AUC(0-inf) [1, 3]: 671 ng·h/mL
- half-life [1, 3]: 5.6 h
- half-life ([1]; 100 mg, 100 mg BID, Day 10): 6.8 ± 1.6 h
- AUC(0-t) ([1]; 100 mg, 100 mg BID, Day 10, read-out: AUC0-t): 1120 ± 362 ng·h/mL
- Cmax ([1]; 100 mg, 100 mg BID, Day 10 steady state): 121 ± 56 ng/mL
- Tmax ([1]; 100 mg, 100 mg BID, Day 10 steady state, Mean (Min, Max)): 5.2 h
- AUC(0-inf) ([1]; 100 mg, 100 mg QD, Day 1): 278 ± 110 ng·h/mL
- Cmax ([1]; 100 mg, 100 mg QD, Day 1): 65 ± 32 ng/mL
- half-life ([1]; 100 mg, 100 mg QD, Day 1): 4.3 ± 0.7 h
- AUC(0-t) ([1]; 100 mg, 100 mg QD, Day 1, read-out: AUC0-12): 234 ± 86 ng·h/mL
- AUC(0-t) ([1]; 100 mg, 100 mg QD, Day 1, read-out: AUC0-t): 268 ± 96 ng·h/mL
- half-life ([1]; 100 mg, 100 mg QD, Day 10): 7.9 ± 4.5 h
- AUC(0-t) ([1]; 100 mg, 100 mg QD, Day 10, read-out: AUC0-12): 285 ± 115 ng·h/mL
- AUC(0-t) ([1]; 100 mg, 100 mg QD, Day 10, read-out: AUC0-t): 400 ± 181 ng·h/mL
- Cmax ([1]; 100 mg, 100 mg QD, Day 10 steady state): 54 ± 22 ng/mL
- Tmax ([1]; 100 mg, 100 mg QD, Day 10 steady state, Mean (Min, Max)): 4.5 h
- AUC(0-inf) ([1]; 150 mg, 150 mg QD, Day 1): 587 ± 254 ng·h/mL
- Cmax ([1]; 150 mg, 150 mg QD, Day 1): 94 ± 40 ng/mL
- half-life ([1]; 150 mg, 150 mg QD, Day 1): 3.9 ± 1.1 h
- Tmax ([1]; 150 mg, 150 mg QD, Day 1, Mean (Min, Max)): 3.3 h
- AUC(0-t) ([1]; 150 mg, 150 mg QD, Day 1, read-out: AUC0-12): 489 ± 218 ng·h/mL
- AUC(0-t) ([1]; 150 mg, 150 mg QD, Day 1, read-out: AUC0-t): 572 ± 247 ng·h/mL
- half-life ([1]; 150 mg, 150 mg QD, Day 10): 6.6 ± 2.8 h
- AUC(0-t) ([1]; 150 mg, 150 mg QD, Day 10, read-out: AUC0-12): 637 ± 246 ng·h/mL
- AUC(0-t) ([1]; 150 mg, 150 mg QD, Day 10, read-out: AUC0-t): 933 ± 424 ng·h/mL
- Cmax ([1]; 150 mg, 150 mg QD, Day 10 steady state): 111 ± 52 ng/mL
- Tmax ([1]; 150 mg, 150 mg QD, Day 10 steady state, Mean (Min, Max)): 6.5 h
- AUC(0-inf) ([1]; 200 mg, 200 mg QD, Day 1): 979 ± 286 ng·h/mL
- Cmax ([1]; 200 mg, 200 mg QD, Day 1): 152 ± 68 ng/mL
- half-life ([1]; 200 mg, 200 mg QD, Day 1): 5.9 ± 3.6 h
- Tmax ([1]; 200 mg, 200 mg QD, Day 1, Mean (Min, Max)): 4.7 h
- AUC(0-t) ([1]; 200 mg, 200 mg QD, Day 1, read-out: AUC0-12): 707 ± 191 ng·h/mL
- AUC(0-t) ([1]; 200 mg, 200 mg QD, Day 1, read-out: AUC0-t): 868 ± 220 ng·h/mL
- half-life ([1]; 200 mg, 200 mg QD, Day 10): 5.9 ± 1 h
- AUC(0-t) ([1]; 200 mg, 200 mg QD, Day 10, read-out: AUC0-12): 1220 ± 362 ng·h/mL
- AUC(0-t) ([1]; 200 mg, 200 mg QD, Day 10, read-out: AUC0-t): 2050 ± 819 ng·h/mL
- Cmax ([1]; 200 mg, 200 mg QD, Day 10 steady state): 198 ± 87 ng/mL
- Tmax ([1]; 200 mg, 200 mg QD, Day 10 steady state, Mean (Min, Max)): 3.7 h
- change of maximal exposure (Cmax) from Day 1 to Day 10 ([1]; multiple dosing, all regimens): generally increased
- increase of overall exposure (AUCt) on Day 10 compared to Day 1 ([1]; multiple dosing, all regimens): 1.5-3.0 fold
- range of mean t1/2 independent of dose or regimen on each study day ([1]; multiple dosing, all regimens): ≤ 2 fold
- maximum plasma exposure (Cmax) lower under fed compared to fasted conditions ([2]; 200 mg, fed (high fat meal) versus fasted): approximately 68%
- mean t1/2, CL/F, Vz/F and median tmax, fed versus fasted ([2]; 200 mg, fed and fasted conditions): comparable
- AUC(0-t) ([2]; 30 mg, single oral dose 30 mg, read-out: AUC0-t): 176 ± 104 ng·h/mL
- AUC(0-t) ([2]; 80 mg, single oral dose 80 mg, read-out: AUC0-12): 395 ± 198 ng·h/mL
- AUC(0-t) ([2]; 80 mg, single oral dose 80 mg, read-out: AUC0-t): 363 ± 215 ng·h/mL
- AUC(0-t) ([2]; 200 mg, single oral dose 200 mg, read-out: AUC0-12): 1000 ± 545 ng·h/mL
- AUC(0-t) ([2]; 200 mg, single oral dose 200 mg, read-out: AUC0-t): 1210 ± 536 ng·h/mL
- AUC(0-t) ([2]; 500 mg, single oral dose 500 mg, read-out: AUC0-12): 1240 ± 547 ng·h/mL
- AUC(0-t) ([2]; 500 mg, single oral dose 500 mg, read-out: AUC0-t): 2930 ± 2440 ng·h/mL
- AUC(0-t) ([2]; 800 mg, single oral dose 800 mg, read-out: AUC0-t): 6420 ± 3180 ng·h/mL
- AUC(0-t) ([2]; 1000 mg, single oral dose 1000 mg, read-out: AUC0-t): 17400 ± 8400 ng·h/mL
- Tmax ([2]; single oral dose 30 mg): 1.3 h
- AUC(0-inf) ([2]; single oral dose 30 mg): 179 ± 115 ng·h/mL
- Cmax ([2]; single oral dose 30 mg): 80 ± 66 ng/mL
- half-life ([2]; single oral dose 30 mg): 4.5 ± 1.6 h
- Tmax ([2]; single oral dose 80 mg): 1.8 h
- AUC(0-inf) ([2]; single oral dose 80 mg): 402 ± 225 ng·h/mL
- Cmax ([2]; single oral dose 80 mg): 101 ± 48 ng/mL
- half-life ([2]; single oral dose 80 mg): 7 ± 2.8 h
- Tmax ([2]; single oral dose 200 mg): 1.9 h
- AUC(0-inf) ([2]; single oral dose 200 mg): 1250 ± 616 ng·h/mL
- Cmax ([2]; single oral dose 200 mg): 416 ± 22 ng/mL
- half-life ([2]; single oral dose 200 mg): 12 ± 1.4 h
- Tmax ([2]; single oral dose 500 mg): 1.9 h
- AUC(0-inf) ([2]; single oral dose 500 mg): 2960 ± 2460 ng·h/mL
- Cmax ([2]; single oral dose 500 mg): 1110 ± 1150 ng/mL
- half-life ([2]; single oral dose 500 mg): 10.2 ± 2.1 h
- Tmax ([2]; single oral dose 800 mg): 2.1 h
- AUC(0-inf) ([2]; single oral dose 800 mg): 6460 ± 3190 ng·h/mL
- Cmax ([2]; single oral dose 800 mg): 2570 ± 1880 ng/mL
- half-life ([2]; single oral dose 800 mg): 8.2 ± 3.3 h
- Tmax ([2]; single oral dose 1000 mg): 2.4 h
- AUC(0-inf) ([2]; single oral dose 1000 mg): 17500 ± 8410 ng·h/mL
- Cmax ([2]; single oral dose 1000 mg): 8380 ± 3210 ng/mL
- half-life ([2]; single oral dose 1000 mg): 9.5 ± 2.6 h
